Read-outs that look alike come from different tables or passages of the source.
Target: T1, Kv1.3 potassium channel (Homo sapiens, UniProt P22001)
T1 construct: expressed in transfected cells
Assay: Kv1.3 potassium channel blocker activity, automated whole-cell patch clamp (Patchliner)
Type: cell-based
Details: CHO-K1 cells stably expressing Kv1.3, whole cell current, pulses -90 mV to +40 mV, read-out: Kv1.3_IC50
Protocol: Example 67. Evaluation of Kv1.3 Potassium Channel Blocker Activities
The assay described below is used to evaluate the disclosed compound's activities as Kv1.3 potassium channel blockers.
CHO-K1 cells stably expressing Kv1.3 were grown in DMEM containing 10% heat-inactivated FBS, 1 mM Sodium Pyruvate, 2 mM L-Glutamine and G418 (500 μg/ml). Cells were grown in culture flasks at 37° C. in a 5% CO2-humidified incubator.
The cells were bathed in an extracellular solution containing 140 mM NaCl, 4 mM KCl, 2 mM CaCl2), 1 mM MgCl2, 5 mM Glucose, 10 mM HEPES; pH adjusted to 7.4 with NaOH; 295-305 mOsm. The internal solution contained 50 mM KCl, 10 mM NaCl, 60 mM KF, 20 mM EGTA, 10 mM HEPES; pH adjusted to 7.2 with KOH; 285 mOsm. All compounds were dissolved in DMSO at 30 mM. Compound stock solutions were freshly diluted with external solution to concentrations of 30 nM, 100 nM, 300 nM, 1 μM, 3 μM, 10 μM, 30 μM and 100 μM. The highest content of DMSO (0.3%) was present in 100 μM.
The currents were evoked by applying 100 ms depolarizing pulses from −90 mV (holding potential) to +40 mV were applied with 0.1 Hz frequency. Control (compound-free) and compound pulse trains for each compound concentration applied contained 20 pulses. 10 second breaks were used between pulse trains (see Table 4 below).
Whole cell current recordings and compound application were enabled by means of an automated patch clamp platform Patchliner (Nanion Technologies GmbH). EPC 10 patch clamp amplifier (HIEKA Elektronik Dr. Schulze GmbH) along with Patchmaster software (HIEKA Elektronik Dr. Schulze GmbH) was used for data acquisition. Data were sampled at 10 kHz without filtering. Passive leak currents were subtracted online using a P/4 procedure (HEKA Elektronik Dr. Schulze GmbH). Increasing compound concentrations were applied consecutively to the same cell without washouts in between. Total compound incubation time before the next pulse train was not longer than 10 seconds. Peak current inhibition was observed during compound equilibration.
AUC and peak values were obtained with Patchmaster (HEKA Elektronik Dr. Schulze GmbH). To determine IC50, the last single pulse in the pulse train corresponding to a given compound concentration was used. Obtained AUC and peak values in the presence of compound were normalized to control values in the absence of compound. Using Origin (OridinLab), IC50 was derived from data fit to Hill equation: Icompound/Icontrol=(100−A)/(1+([compound]/IC50)nH)+A, where IC50 value is the concentration at which current inhibition is half-maximal, [compound] is the applied compound concentration, A is the fraction of current that is not blocked and nH is the Hill coefficient.

T1 sequence (P22001 whole entry): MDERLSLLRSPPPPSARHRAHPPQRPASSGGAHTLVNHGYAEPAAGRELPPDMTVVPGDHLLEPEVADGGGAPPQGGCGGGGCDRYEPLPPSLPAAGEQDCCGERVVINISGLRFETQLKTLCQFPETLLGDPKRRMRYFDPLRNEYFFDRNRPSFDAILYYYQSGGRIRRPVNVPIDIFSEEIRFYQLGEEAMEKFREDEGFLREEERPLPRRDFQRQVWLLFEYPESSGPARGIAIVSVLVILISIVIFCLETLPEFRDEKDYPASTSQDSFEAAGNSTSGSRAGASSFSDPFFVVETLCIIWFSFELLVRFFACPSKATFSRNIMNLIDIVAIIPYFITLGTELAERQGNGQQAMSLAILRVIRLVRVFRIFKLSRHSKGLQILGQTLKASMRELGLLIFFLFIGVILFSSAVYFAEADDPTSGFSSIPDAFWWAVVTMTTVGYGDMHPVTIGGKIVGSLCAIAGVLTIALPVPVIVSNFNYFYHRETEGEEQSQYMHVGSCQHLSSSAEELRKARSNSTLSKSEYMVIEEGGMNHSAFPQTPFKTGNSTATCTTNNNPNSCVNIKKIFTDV

Compound	IC50 (Table 6) [µM]	IC50 (Table 7) [µM]
Cc1cc(C(O)c2c(O)ccc(Cl)c2Cl)ccn1 (centres unmarked) [Compound 35, 3,4-dichloro-2-[hydroxy(2-methylpyridin-4-yl)methyl]phenol]	< 10	–
Oc1ccc(Cl)c(Cl)c1C(O)c1ccncn1 (centres unmarked) [Compound 55, 3,4-dichloro-2-[hydroxy(pyrimidin-4-yl)methyl]phenol]	< 10	–
CC(=O)NC(c1ccncc1)c1cc(Cl)c(Cl)cc1O (centres unmarked) [Compound 19, N-[(4,5-dichloro-2-hydroxyphenyl)(pyridin-4-yl)methyl]acetamide]	< 10	–
COCC(=O)NC(c1ccncc1)c1c(O)ccc(Cl)c1Cl (centres unmarked) [Compound 63, N-[(2,3-dichloro-6-hydroxyphenyl)(pyridin-4-yl)methyl]-2-methoxyacetamide]	< 10	–
NC(c1cn[nH]c1)c1c(O)ccc(Cl)c1Cl (centres unmarked) [Compound 7, 2-[amino(1H-pyrazol-4-yl)methyl]-3,4-dichlorophenol]	< 30	–
NC(c1ccc(=O)[nH]c1)c1cc(Cl)c(Cl)cc1O (centres unmarked) [Compound 15, 5-[amino(4,5-dichloro-2-hydroxyphenyl)methyl]-1,2-dihydropyridin-2-one]	< 10	–
O=C(c1ccncc1)c1c(O)ccc(Cl)c1Cl [Compound 61, 3,4-dichloro-2-(pyridine-4-carbonyl)phenol]	< 10	–
O=C(NC(c1ccncc1)c1c(O)ccc(Cl)c1Cl)c1cn[nH]c1 (centres unmarked) [Compound 57, N-[(2,3-dichloro-6-hydroxyphenyl)(pyridin-4-yl)methyl]-1H-pyrazole-4-carboxamide]	< 30	–
Oc1ccc(Cl)c(Cl)c1Cc1ccncc1 [Compound 22, 3,4-dichloro-2-[(pyridin-4-yl)methyl]phenol]	< 10	–
O=C(N[C@@H](c1ccncc1)c1c(O)ccc(Cl)c1Cl)[C@H]1CCCN1 (single isomer, unassigned) [Compound 67]	< 10	–
Oc1ccc(Cl)c(Cl)c1C(O)c1ccc2[nH]ccc2c1 (centres unmarked) [Compound 52, 3,4-dichloro-2-[hydroxy(1H-indol-5-yl)methyl]phenol]	< 30	–
CN1CC(C(=O)NC(c2ccncc2)c2c(O)ccc(Cl)c2Cl)C1 (single isomer, unassigned) [Compound 75, N-[(2,3-dichloro-6-hydroxyphenyl)(pyridin-4-yl)methyl]-1-methylazetidine-3-carboxamide]	< 10	–
Cc1cnccc1C(O)c1c(O)ccc(Cl)c1Cl (single isomer, unassigned) [Compound 43, 3,4-dichloro-2-[hydroxy(3-methylpyridin-4-yl)methyl]phenol]	< 30	–
Cn1cc(C(O)c2c(O)ccc(Cl)c2Cl)ccc1=O (centres unmarked) [Compound 60, 5-[(2,3-dichloro-6-hydroxyphenyl)(hydroxy)methyl]-1-methyl-1,2-dihydropyridin-2-one]	< 1	–
Nc1ccc(C(N)c2cc(Cl)c(Cl)cc2O)cn1 (centres unmarked) [Compound 12, 2-[amino(6-aminopyridin-3-yl)methyl]-4,5-dichlorophenol]	< 10	–
C[C@H](NC(=O)C1CN(C(=O)CO)C1)c1c(O)ccc(Cl)c1Cl [Compound 88, N-[(1S)-1-(2,3-dichloro-6-hydroxyphenyl)ethyl]-1-(2-hydroxyacetyl) azetidine-3-carboxamide]	–	< 10
CC(C)C(=O)NC(c1ccncc1)c1c(O)ccc(Cl)c1Cl (centres unmarked) [Compound 69, N-[(2,3-dichloro-6-hydroxyphenyl)(pyridin-4-yl)methyl]-2-methylpropanamide]	< 30	–
NC(=O)c1cc(Cc2c(O)ccc(Cl)c2Cl)ccn1 [Compound 24, 4-[(2,3-dichloro-6-hydroxyphenyl)methyl]pyridine-2-carboxamide]	< 10	–
Nc1ccc(C(N)c2c(O)ccc(Cl)c2Cl)cn1 (centres unmarked) [Compound 14, 2-[amino(6-aminopyridin-3-yl)methyl]-3,4-dichlorophenol]	< 10	–
NC(=O)c1cnccc1Cc1cc(Cl)c(Cl)cc1O [Compound 4, 4-[(4,5-dichloro-2-hydroxyphenyl)methyl]pyridine-3-carboxamide]	< 10	–
C[C@H](NC(=O)C1CCNCC1)c1c(O)ccc(Cl)c1Cl [Compound 90, N-[(1S)-1-(2,3-dichloro-6-hydroxyphenyl)ethyl]piperidine-4-carboxamide]	–	< 1

Compound	IC50 (Table 6) [µM]	IC50 (Table 7) [µM]
C[C@H](NC(=O)CO)c1c(O)ccc(Cl)c1Cl [Compound 83, N-[(1S)-1-(2,3-dichloro-6-hydroxyphenyl)ethyl]-2-hydroxyacetamide]	–	< 10
N#Cc1ccc(C(N)c2cc(Cl)c(Cl)cc2O)cc1 (centres unmarked) [Compound 16, 4-[amino(4,5-dichloro-2-hydroxyphenyl)methyl]benzonitrile]	< 10	–
C[C@@H](NC(=O)[C@@H]1CCCNC1)c1c(O)ccc(Cl)c1Cl [Compound 79, (3R)-N-[(1R)-1-(2,3-dichloro-6-hydroxyphenyl)ethyl]piperidine-3-carboxamide]	–	< 10
C[C@H](NC(=O)C1(O)CNC1)c1c(O)ccc(Cl)c1Cl [Compound 87]	–	< 10
NC(=O)c1cc(C(O)c2c(O)ccc(Cl)c2Cl)ccn1 (centres unmarked) [Compound 23, 4-[(2,3-dichloro-6-hydroxyphenyl)(hydroxy)methyl]pyridine-2-carboxamide]	< 10	–
Cc1cc(O)c(C(N)CC(=O)NC2CNC2)cc1Cl (centres unmarked) [Compound 97, 3-amino-N-(azetidin-3-yl)-3-(5-chloro-2-hydroxy-4-methylphenyl)propenamide]	–	< 1
Nc1ccc(Cl)c(Cl)c1C(=O)c1ccncc1 [Compound 62, 3,4-dichloro-2-(pyridine-4-carbonyl)aniline]	< 10	–
C[C@H](NC(=O)C1CNC1)c1cc(Cl)c(Cl)cc1O [Compound 86, N-[(1S)-1-(4,5-dichloro-2-hydroxyphenyl)ethyl]azetidine-3-carboxamide]	–	< 10
CC(c1ccncc1)c1c(O)ccc(Cl)c1Cl (centres unmarked) [Compound 25, 3,4-dichloro-2-[1-(pyridin-4-yl)ethyl]phenol]	< 10	–
O=C(N[C@@H](c1ccncc1)c1c(O)ccc(Cl)c1Cl)[C@@H]1CCCN1 (single isomer, unassigned) [Compound 65]	< 30	–
Cc1cc(O)c(C(N)CNC(=O)CO)cc1Cl (centres unmarked) [Compound 96, N-[2-amino-2-(5-chloro-2-hydroxy-4-methylphenyl)ethyl]-hydroxyacetamide]	–	< 10
C[C@H](NC(=O)[C@H]1CCNC1)c1c(O)ccc(Cl)c1Cl [Compound 93, (3S)-N-[(1S)-1-(2,3-dichloro-6-hydroxyphenyl)ethyl]pyrrolidine-3-carboxamide]	–	< 1
NC(c1ccccc1)c1c(O)ccc(Cl)c1Cl (centres unmarked) [Compound 3, 2-[amino(phenyl)methyl]-3,4-dichlorophenol]	< 30	–
C[C@H](NC(=O)[C@@H]1CCCNC1)c1c(O)ccc(Cl)c1Cl [Compound 81, (3R)-N-[(1S)-1-(2,3-dichloro-6-hydroxyphenyl)ethyl]piperidine-3-carboxamide]	–	< 1
Cc1cc(O)c([C@H](C)NC(=O)C2CNC2)cc1Cl [Compound 82, N-[(1S)-1-(5-chloro-2-hydroxy-4-methylphenyl)ethyl]azetidine-3-carboxamide]	–	< 10
Cc1cc(O)c([C@@H](N)CNC(=O)C2CNC2)cc1Cl [Compound 95, N-[(2R)-2-amino-2-(5-chloro-2-hydroxy-4-methylphenyl)ethyl] azetidine-3-carboxamide]	–	< 10
Oc1ccc(Cl)c(Cl)c1C(O)c1cnccn1 (centres unmarked) [Compound 54, 3,4-dichloro-2-[hydroxy(pyrazin-2-yl)methyl]phenol]	< 10	–
CC(NC(=O)C1CNCCO1)c1c(O)ccc(Cl)c1Cl (centres unmarked) [Compound 92, N-[1-(2,3-dichloro-6-hydroxyphenyl)ethyl]morpholine-2-carboxamide]	–	< 10
Oc1ccc(Cl)c(Cl)c1C(O)c1ccnc(N2CCOCC2)c1 (centres unmarked) [Compound 58, 3,4-dichloro-2-[hydroxy[2-(morpholin-4-yl)pyridin-4-yl]methyl]phenol]	< 10	–
C[C@@H](NC(=O)C1CNC1)c1c(O)ccc(Cl)c1Cl [Compound 77, N-[(1R)-1-(2,3-dichloro-6-hydroxyphenyl)ethyl]azetidine-3-carboxamide]	–	< 1

Source: patent US20230131535A1, “ARYLMETHYLENE AROMATIC COMPOUNDS AS Kv1.3 POTASSIUM SHAKER CHANNEL BLOCKERS” (D. E. Shaw Research, LLC, priority 2019, published 2023)
